Results from patent US8415342B2, “Besifloxacin ophthalmic composition for the treatment or control of infection” (Bausch & Lomb Incorporated, priority 2008, dated 2013).
≈ marks a conversion by molar mass, not a printed value. Where “and” joins values, the source holds several entries; their conditions need not be identical. Equal values may be shown once. Read-outs that look alike come from different tables or passages of the source.

Columns and labels:
[1] = tested on: Pathogens Associated With Bacterial Conjunctivitis; assay: Integrated besifloxacin MIC data from preclinical (nonclinical) studies (Table 8); format: cell-based; settings: for MIC50: read-out: MIC50
[2] = tested on: S. aureus, S. pneumoniae, and H. influenzae; assay: Time-kill studies; format: cell-based; settings: S. pneumoniae, and H. influenzae (data not shown)
Source text: The success of in vivo antimicrobial action depends to a large extent on the host's defense mechanisms, which ultimately sequester and kill the microorganisms that have been reduced by the bacteriostatic/bactericidal action of the antibacterial agent. Thus, it is also of interest to profile the bactericidal activity of antimicrobial agents. The assessment of in vitro bactericidal activity can be accomplished in multiple ways, for example, the time-kill method or the determination of the minimum bactericidal concentration (MBC). […] Bactericidal agents are characterized by low MBC:MIC ratios.

E. coli DNA gyrase = E. coli DNA gyrase (Escherichia coli, UniProt P0AES4+P0AES6); assay: Cleavable complex stimulation (CC25), DNA gyrase; format: biochemical; settings: E. coli enzymes; concentration that produces 25% linearization of the DNA
[3] = tested on: E. coli topoisomerase mutants; assay: MIC against defined topoisomerase mutants; format: cell-based; settings: Escherichia coli
Protocol: Furthermore, an experiment was conducted to assess the mechanism of action of besifloxacin in S. pneumoniae, S. aureus, and E. coli via step selections for isolates with decreased susceptibility to besifloxacin, as well as by testing for altered susceptibilities of ciprofloxacin-resistant variants of all three species containing genetically defined mutations in the quinolone resistance determining regions (QRDRs) of structural genes encoding DNA gyrase and topoisomerase IV (Table 2).

[4] = Proteus mirabilis Quinolone-S, N 98
[5] = Serratia marcescens Quinolone-S, N 98

N[C@@H]1CCCCN(c2c(F)cc3c(=O)c(C(=O)O)cn(C4CC4)c3c2Cl)C1 [Besifloxacin, (R)-(+)-(3-amino-2,3,4,5,6,7-hexahydro-1H-azepin-1-yl)-8-chloro-1-cyclopropyl-6-fluoro-1,4,-dihydro-4-oxo-3-quinolinecarboxylic acid]
MIC50 ([1]; Moraxella species, N 30, agar dilution): ≤ 0.06 µg/mL | MIC90 ([1]; Moraxella species, N 30, agar dilution, read-out: MIC90): 0.13 µg/mL (≈ 0.33 µM) | MIC Range ([1]; Morganella morganii Quinolone-S, N 39): 0.03 to 2 µg/mL | MIC50 ([1]; Morganella morganii, Morganella morganii Quinolone-R, N 12): 4 µg/mL (≈ 10.2 µM) | MIC90 ([1]; Morganella morganii, Morganella morganii Quinolone-R, N 12, read-out: MIC90): 8 µg/mL (≈ 20.3 µM) | MIC90 ([1]; Morganella morganii, Morganella morganii Quinolone-S, N 39, read-out: MIC90): 1 µg/mL (≈ 2.54 µM) | MIC Range ([1]; Neisseria gonorrhoeae, N 103): 0.004 to 2 µg/mL | MIC50 ([1]; Neisseria gonorrhoeae, N 103): 0.015 µg/mL (≈ 0.0381 µM) | MIC90 ([1]; Neisseria gonorrhoeae, N 103, read-out: MIC90): 0.015 µg/mL (≈ 0.0381 µM) | MIC Range ([1]; Propionibacterium acnes, N 21, agar dilution): 0.12 to 0.25 µg/mL | MIC Range [1, 4]: 0.25 to 4 µg/mL | MIC50 [1, 4]: 0.5 µg/mL (≈ 1.27 µM) | MIC90 ([1]; Proteus mirabilis, Proteus mirabilis Quinolone-S, N 98, read-out: MIC90): 1 µg/mL (≈ 2.54 µM) | MIC Range ([1]; Pseudomonas aeruginosa Quinolone-S, N 49): 0.5 to 4 µg/mL | MIC50 ([1]; Pseudomonas aeruginosa, Pseudomonas aeruginosa Quinolone-R, N 51): > 8 µg/mL | MIC90 ([1]; Pseudomonas aeruginosa, Pseudomonas aeruginosa Quinolone-R, N 51, read-out: MIC90): > 8 µg/mL | MIC50 ([1]; Pseudomonas aeruginosa, Pseudomonas aeruginosa Quinolone-S, N 49): 1 µg/mL (≈ 2.54 µM) | MIC90 ([1]; Pseudomonas aeruginosa, Pseudomonas aeruginosa Quinolone-S, N 49, read-out: MIC90): 2 µg/mL (≈ 5.08 µM) | MIC90 ([1]; S. aureus, value used for PK/PD ratios of Study 424): ^aMIC90: S. aureus = 1 μg/mL. | MIC Range [1, 5]: 0.25 to 2 µg/mL | MIC50 [1, 5]: 1 µg/mL (≈ 2.54 µM) | MIC90 ([1]; Serratia marcescens, Serratia marcescens Quinolone-S, N 98, read-out: MIC90): 2 µg/mL (≈ 5.08 µM) | MIC Range ([1]; Staphylococcus aureus MRSA-QR, N 73): 0.25 to 8 µg/mL | MIC Range ([1]; Staphylococcus aureus MSSA-QR, N 12): 0.03 to 4 µg/mL | MIC50 ([1]; Staphylococcus aureus, MRSA, Staphylococcus aureus MRSA-QR, N 73): 1 µg/mL (≈ 2.54 µM) | MIC50 ([1]; Staphylococcus aureus, MRSA, Staphylococcus aureus MRSA-QS, N 36): 0.03 µg/mL (≈ 0.0762 µM) | MIC50 ([1]; Staphylococcus aureus, MSSA, Staphylococcus aureus MSSA-QR, N 12): 0.25 µg/mL (≈ 0.635 µM) | MIC90 ([1]; Staphylococcus aureus, MSSA, Staphylococcus aureus MSSA-QR, N 12, read-out: MIC90): 4 µg/mL (≈ 10.2 µM) | MIC50 ([1]; Staphylococcus aureus, MSSA, Staphylococcus aureus MSSA-QS, N 80): 0.03 µg/mL (≈ 0.0762 µM) | MIC90 ([1]; Staphylococcus aureus, S. aureus, value used for PK/PD ratios of Study 424, read-out: MIC90): 1 µg/mL | MIC Range ([1]; Staphylococcus epidermidis MRSE-QR, N 32): 0.25 to 8 µg/mL | MIC Range ([1]; Staphylococcus epidermidis MSSE-QR, N 5): 0.25 to 1 µg/mL | MIC Range ([1]; Staphylococcus epidermidis MSSE-QS, N 39): 0.015 to 0.06 µg/mL | MIC50 ([1]; Staphylococcus epidermidis, MRSE, Staphylococcus epidermidis MRSE-QR, N 32): 2 µg/mL (≈ 5.08 µM) | MIC50 ([1]; Staphylococcus epidermidis, MRSE, Staphylococcus epidermidis MRSE-QS, N 23): 0.03 µg/mL (≈ 0.0762 µM) | MIC50 ([1]; Staphylococcus epidermidis, Staphylococcus epidermidis MSSE-QR, N 5): 0.5 µg/mL (≈ 1.27 µM) | MIC Range ([1]; Staphylococcus hominis Quinolone-R, N 35): 0.125 to 2 µg/mL | MIC Range ([1]; Staphylococcus hominis Quinolone-S, N 15): 0.015 to 0.06 µg/mL | MIC50 ([1]; Staphylococcus hominis, Staphylococcus hominis Quinolone-S, N 15): 0.03 µg/mL (≈ 0.0762 µM) | MIC90 ([1]; Staphylococcus hominis, Staphylococcus hominis Quinolone-S, N 15, read-out: MIC90): 0.06 µg/mL (≈ 0.152 µM) | MIC Range ([1]; Staphylococcus lugdunensis Quinolone-R, N 5): 0.125 to 2 µg/mL | MIC Range ([1]; Staphylococcus lugdunensis Quinolone-S, N 10): 0.015 to 0.06 µg/mL | MIC50 ([1]; Staphylococcus lugdunensis, Staphylococcus lugdunensis Quinolone-R, N 5): 0.5 µg/mL (≈ 1.27 µM) | MIC90 ([1]; Staphylococcus lugdunensis, Staphylococcus lugdunensis Quinolone-R, N 5, read-out: MIC90): 2 µg/mL (≈ 5.08 µM) | MIC50 ([1]; Staphylococcus lugdunensis, Staphylococcus lugdunensis Quinolone-S, N 10): 0.03 µg/mL (≈ 0.0762 µM) | MIC90 ([1]; Staphylococcus lugdunensis, Staphylococcus lugdunensis Quinolone-S, N 10, read-out: MIC90): 0.06 µg/mL (≈ 0.152 µM) | MIC50 ([1]; Streptococcus mitis, Streptococcus mitis group, N 90): 0.06 µg/mL (≈ 0.152 µM) | MIC90 ([1]; Streptococcus mitis, Streptococcus mitis group, N 90, read-out: MIC90): 0.12 µg/mL (≈ 0.305 µM) | MIC Range ([1]; Streptococcus oralis, N 22): 0.03 to 2 µg/mL | MIC50 ([1]; Streptococcus oralis, N 22): 0.06 µg/mL (≈ 0.152 µM) | MIC90 ([1]; Streptococcus oralis, N 22, read-out: MIC90): 0.12 µg/mL (≈ 0.305 µM) | MIC Range ([1]; Streptococcus pneumoniae Penicillin-S, N 123): 0.015 to 1 µg/mL | MIC50 ([1]; Streptococcus pneumoniae, Streptococcus pneumoniae Penicillin-I, N 28): 0.12 µg/mL (≈ 0.305 µM) | MIC90 ([1]; Streptococcus pneumoniae, Streptococcus pneumoniae Penicillin-I, N 28, read-out: MIC90): 0.12 µg/mL (≈ 0.305 µM) | MIC50 ([1]; Streptococcus pneumoniae, Streptococcus pneumoniae Penicillin-R, N 61): 0.12 µg/mL (≈ 0.305 µM) | MIC90 ([1]; Streptococcus pneumoniae, Streptococcus pneumoniae Penicillin-R, N 61, read-out: MIC90): 0.12 µg/mL (≈ 0.305 µM) | MIC50 ([1]; Streptococcus pneumoniae, Streptococcus pneumoniae Penicillin-S, N 123): 0.12 µg/mL (≈ 0.305 µM) | MIC90 ([1]; Streptococcus pneumoniae, Streptococcus pneumoniae Penicillin-S, N 123, read-out: MIC90): 0.12 µg/mL (≈ 0.305 µM) | MIC50 ([1]; Streptococcus pneumoniae, Streptococcus pneumoniae Quinolone-R, N 23): 1 µg/mL (≈ 2.54 µM) | MIC90 ([1]; Streptococcus pneumoniae, Streptococcus pneumoniae Quinolone-R, N 23, read-out: MIC90): 4 µg/mL (≈ 10.2 µM) | MIC50 ([1]; Streptococcus pyogenes, N 201): 0.06 µg/mL (≈ 0.152 µM) | MIC90 ([1]; Streptococcus pyogenes, N 201, read-out: MIC90): 0.12 µg/mL (≈ 0.305 µM) | MIC Range ([1]; Streptococcus salivarius, N 2): 0.06 µg/mL (≈ 0.152 µM) | bactericidal activity in time-kill studies [2]: confirmed the bactericidal activity | CC25 Gyrase (E. coli DNA gyrase): 0.1 μM and 0.04 μg/mL | MIC ([3]; E. coli Wild type): 0.12 µg/mL (≈ 0.305 µM) | MIC ([3]; E. coli gyrA D87Y (or S83L)): 0.5 µg/mL (≈ 1.27 µM) | MIC ([3]; E. coli gyrA S83L + parC S80R): 16 µg/mL | MIC ([3]; E. coli gyrA S83L + parE H445L): 1 µg/mL | MIC ([3]; E. coli gyrB D426N): 0.5 µg/mL (≈ 1.27 µM)
